Reference: article PMC2424174, “Suppression of Tumor Growth and Angiogenesis by a Specific Antagonist of the Cell-Surface Expressed Nucleolin” (PLoS ONE, 2008)

Experiments:
MDA-MB-435 cells = test: Colony formation in soft agar, MDA-MB-435; assay type: cell-based, human; settings: 5 µM HB-19, MDA-MB-435
Experimental: Figure 4 HB-19 inhibits colony formation in soft agar by tumor cell lines. (A) MDA-MB-231 cells in culture medium were seeded in triplicate in the absence (histogram C) or presence of 0.1, 0.5 and 1 of µM HB-19, or 0.1 µM of the anti-nucleolin mAb MS-3 or control IgG, or 10 µM bisphosphonate (BisP). (B) Various tumor cell lines (as indicated) in culture medium were seeded in triplicate in the absence (histogram Control) or presence of 5 µM HB-19. After 10–21 days, colonies with diameters greater than 50 µm were scored as positive. Statistical significance: *0.01<p<[…], **p<0.01, ***p<0.001.
Carcinoma cells (2×10^4) were mixed in 0.35% top agar, diluted in complete medium (DMEM containing 10% FBS) in the absence or presence of HB-19, and plated onto 0.8% bottom agar into 12-well plates. Cells were treated twice a week during 10 to 21 days. Colonies with diameters greater than 50 µm were scored as positive using a phase contrast microscope equipped with a measuring grid at magnification 100× [45]. The number of colonies was determined by analyzing 5 fields/well from 3 wells and the test was repeated at least twice.

Swiss mice = test: Mouse Matrigel plug angiogenesis assay; assay type: in vivo; settings: endothelial-cell infiltration, n = 5 mice
Experimental: Figure 6 Inhibition of in vitro and in vivo angiogenesis by HB-19. (A) HB-19 inhibits proliferation of HUVECs. Twenty-four hours after seeding HUVECs in 2% FBS, cells were stimulated by 0.25 nM VEGF165, in the absence or presence of 1 µM HB-19 or 0.1 µM anti-nucleolin mAb MS-3 as indicated. After 72 h, cell number was determined by crystal violet staining. The data are reported as the mean of triplicate samples. (B) HB-19 inhibits migration of HUVECs. Cell migration was studied using a modified Boyden chamber. Cells were incubated (4 h at 37°C) with VEGF165, HB-19, or anti-nucleolin mAb MS-3 as above. Cells that migrated through the pore to the lower filter surface were counted and are shown as number per microscopic field at ×100 magnification. The data are the mean of three independent high-power fields/well performed in duplicate in two independent experiments. […] Aortic endothelial (ABAE) cells in the absence or presence of 3 nM PTN, 0.5 nM VEGF165, and 3 nM FGF-2 were seeded on a three-dimensional collagen gel in complete medium. […] Tubular network structures were quantified using phase contrast microscopy (×100). […] Quantification of endothelial cell invasion into the Matrigel was determined and is expressed as a mean of five fields per section from 3 Matrigel-plug sections per mouse. The results are expressed as the mean of five mice per group. […]

[1] = system: Aortic endothelial (ABAE) cells; test: Tubular network structure formation in collagen gel; assay type: cell-based, bovine
Experimental: Figure 6 Inhibition of in vitro and in vivo angiogenesis by HB-19. (A) HB-19 inhibits proliferation of HUVECs. Twenty-four hours after seeding HUVECs in 2% FBS, cells were stimulated by 0.25 nM VEGF165, in the absence or presence of 1 µM HB-19 or 0.1 µM anti-nucleolin mAb MS-3 as indicated. After 72 h, cell number was determined by crystal violet staining. The data are reported as the mean of triplicate samples. (B) HB-19 inhibits migration of HUVECs. Cell migration was studied using a modified Boyden chamber. Cells were incubated (4 h at 37°C) with VEGF165, HB-19, or anti-nucleolin mAb MS-3 as above. Cells that migrated through the pore to the lower filter surface were counted and are shown as number per microscopic field at ×100 magnification. The data are the mean of three independent high-power fields/well performed in duplicate in two independent experiments. […] Aortic endothelial (ABAE) cells in the absence or presence of 3 nM PTN, 0.5 nM VEGF165, and 3 nM FGF-2 were seeded on a three-dimensional collagen gel in complete medium. Treatment with HB-19 or anti-nucleolin mAb MS-3 was for 3 days after cell plating. Tubular network structures were quantified using phase contrast microscopy (×100). The ordinate gives the number of pseudocapillaries corresponding to the means of three randomly chosen fields/well from three wells. (D) HB-19 inhibits […] angiogenic activity of growth factors in a Matrigel plug model. Liquid Matrigel was subcutaneously injected into the flank of Swiss mice in the absence or presence of 5 nM PTN, 10 nM FGF-2, and 1 µM HB-19. Quantification of endothelial cell invasion into the Matrigel was determined and is expressed as a mean of five fields per section from 3 Matrigel-plug sections per mouse. The results are expressed as the mean of five mice per group. Statistical significance: *p<0.05, **p<0.01, ***p<0.001.
Three-dimensional collagen gels were prepared following the procedure of Montesano with minor modifications. […] Tubular network structures were then quantified using phase contrast microscopy at 100× magnification. […]

With “pseudo-tripeptide Lysψ(CH2N)-Pro-Arg coupled to a template (H2NLys-Lys-Lys-Gly-Pro-Lys-Glu-Lys-AhxCONH2) [HB-19, pseudopeptide presenting pentavalently the pseudo-tripeptide Lysψ(CH2N)-Pro-Arg coupled to a template]” the colony formation (MDA-MB-435 cells) was “reduced markedly”, the “inhibition of PTN induced angiogenesis” value (Swiss mice; 1 µM HB-19, 5 nM PTN) was “significantly inhibited the ex vivo angiogenesis” and the “inhibition of FGF-2 induced angiogenesis” value (Swiss mice; 1 µM HB-19, 10 nM FGF-2) was “significantly inhibited the ex vivo angiogenesis”. The “capillary-like structure formation, VEGF induced” value ([1]; 0.5 nM VEGF165, treatment 3 days) was “inhibited formation of capillary-like branched structures”, the “tubular network formation, FGF-2 induced” value ([1]; 3 nM FGF-2, treatment 3 days) was “inhibits tubular network structure formation in collagen” and the “capillary-like structure formation, PTN induced” value ([1]; 3 nM PTN, treatment 3 days) was “inhibited formation of capillary-like branched structures”.
